Where “and” joins values, the source holds several entries; their conditions need not be identical. Equal entries are not always repeated. Structures can show the parent of a compound that is named as a salt.
molecular target: D(1A) dopamine receptor (Bos taurus, UniProt Q95136)
Sequence (Q95136 whole entry): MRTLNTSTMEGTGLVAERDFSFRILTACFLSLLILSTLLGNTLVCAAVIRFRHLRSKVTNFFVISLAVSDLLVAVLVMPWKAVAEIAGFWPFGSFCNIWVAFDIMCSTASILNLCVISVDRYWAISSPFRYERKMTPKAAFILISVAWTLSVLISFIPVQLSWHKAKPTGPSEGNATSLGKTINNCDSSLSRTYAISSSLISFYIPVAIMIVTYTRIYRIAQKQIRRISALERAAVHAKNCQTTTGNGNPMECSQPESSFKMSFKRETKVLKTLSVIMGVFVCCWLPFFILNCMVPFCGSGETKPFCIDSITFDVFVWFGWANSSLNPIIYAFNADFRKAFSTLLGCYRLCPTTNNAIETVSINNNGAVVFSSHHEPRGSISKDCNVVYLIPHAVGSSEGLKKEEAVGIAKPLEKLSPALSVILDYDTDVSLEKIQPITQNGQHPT

| Structure (SMILES) | Ki |
| --- | --- |
| O=c1[nH]c2ccccc2n1C1CCN(CCCC(c2ccc(F)cc2)c2ccc(F)cc2)CC1 [1-(1-(4,4-bis(4-fluorophenyl)butyl)piperidin-4-yl)-1H-benzo[d]imidazol-2(3H)-one] | 4100 nM |
| O=C(CCCN1CCC(O)(c2ccc(Cl)cc2)CC1)c1ccc(F)cc1 [4-[4-(4-Chloro-phenyl)-4-hydroxy-piperidin-1-yl]-1-(4-fluoro-phenyl)-butan-1-one;propionate(HCl)] | 650 nM |

molecular target: D(2) dopamine receptor (Bos taurus, UniProt P20288)
Sequence (P20288 whole entry): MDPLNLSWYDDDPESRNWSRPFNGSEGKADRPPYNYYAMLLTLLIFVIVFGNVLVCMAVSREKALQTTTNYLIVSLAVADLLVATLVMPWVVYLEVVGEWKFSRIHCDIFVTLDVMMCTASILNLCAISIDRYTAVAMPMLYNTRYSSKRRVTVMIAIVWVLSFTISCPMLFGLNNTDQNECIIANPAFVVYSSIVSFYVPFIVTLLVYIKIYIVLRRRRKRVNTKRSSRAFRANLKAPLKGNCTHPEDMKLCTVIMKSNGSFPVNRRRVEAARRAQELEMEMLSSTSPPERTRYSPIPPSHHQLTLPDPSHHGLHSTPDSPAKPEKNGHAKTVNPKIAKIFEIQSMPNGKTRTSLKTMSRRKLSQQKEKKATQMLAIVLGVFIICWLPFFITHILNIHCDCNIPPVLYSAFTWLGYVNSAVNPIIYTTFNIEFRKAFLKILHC

| Structure (SMILES) | Ki |
| --- | --- |
| O=c1[nH]c2ccccc2n1C1CCN(CCCC(c2ccc(F)cc2)c2ccc(F)cc2)CC1 [1-(1-(4,4-bis(4-fluorophenyl)butyl)piperidin-4-yl)-1H-benzo[d]imidazol-2(3H)-one] | 0.8 nM |
| OCCN1CCN(CCCN2c3ccccc3Sc3ccc(C(F)(F)F)cc32)CC1 [2-[4-[3-[2-(trifluoromethyl)phenothiazin-10-yl]propyl]piperazin-1-yl]ethanol;hydrochloride] | 1.2 nM and 0.5 nM |
| OCCN1CCN(CC/C=C2/c3ccccc3Sc3ccc(C(F)(F)F)cc32)CC1 [(cis) 2-{4-[3-(2-Trifluoromethyl-thioxanthen-9-ylidene)-propyl]-piperazin-1-yl}-ethanol(Flupentixol)] | 1.1 nM |
| CN1CCN(CC/C=C2/c3ccccc3Sc3ccc(S(=O)(=O)N(C)C)cc32)CC1 [MLS000028463] | 1.4 nM |

From BindingDB's records for doi:10.1176/jnp.8.2.223 (1996)
